# Laboratory results taken from US20160368992A1, “A METHOD OF INCREASING GIPCR SIGNALIZATION IN THE CELLS OF A SCOLIOTIC SUBJECT” (CHU SAINTE-JUSTINE, priority 2013, published 2016).
# “Also recorded” adds a separate entry of the source. Where two headings read alike, the source gives them in different places.
# Key:
# GiPCR signaling [1] = experiment: CDS (CellKey) functional evaluation of Gi protein-mediated receptor signaling in primary mouse osteoblasts; assay type: cell-based, mice
# Gi1, Gi2, Gi3 proteins = experiment: Immunoprecipitation/Western blot: phosphorylation of Gi proteins in MC3T3-E1 cells; assay type: cell-based; conditions: MC3T3-E1 treated with rOPN in presence of kinase inhibitor
# Description: Given that the defective GiPCR signaling associated with idiopathic scoliosis has causatively been related to increased phosphorylation of Gi proteins (Moreau et al., 2004), it was of interest to examined whether OPN influences the phosphorylation status of Gi proteins. Accordingly, MC3T3-E1 cells were treated with rOPN, then cell lysates were immunoprecipitated with antibodies against Gi1, Gi2 or Gi3 protein isoforms, and the phosphorylation level was examined by Western blot using anti-phospho serine/threonine or anti-tyrosine antibodies. […] However, band density was higher in OPN-treated cells.
# To support the involvement of α5β1 integrin in this process, cells were pre-treated with antibody against α5β1 integrin prior to rOPN treatment.
# Cell extracts prepared from MC3T3-E1 that had been treated with rOPN in the presence or absence of an inhibitor specific for each kinase were subjected to immunoprecipitation and Western blot analysis. […] However, both serine and tyrosine phosphorylation were attenuated by inhibitors of FAK (FAK inhibitor-14), Scr (PP2), CaMKII (KN93), PI3K (wortmannin-data not shown), MEK (PD98059), ERK1/2 (FR180204), JNK (SP60125) and P38 (SB203580).
# GiPCR signaling [2] = experiment: CDS integrated response to GiPCR ligands in MC3T3-E1 osteoblastic cell line; assay type: cell-based; conditions: for response in the presence of rOPN after siRNA transfection: MC3T3-E1, compared with untreated cells
# Description: The functional evaluation of Gi, Gs and Gq proteins was assessed by CDS assays using osteoblasts cells derived from C57Bl/6j WT and C57Bl/6j OPN^−/− mice (bipedal and quadrupedal) using CellKey™ apparatus, as previously described (Akoume et al., 2010, and WO 2010/040234 to Moreau et al.).
# MC3T3-E1 cells were used to check the effect of the knockdown of OPN and its receptors. MC3T3-E1 osteoblasts cells were transiently transfected in serum-free medium, using Lipofectamine™ RNAiMAX reagent (Invitrogen) according to the manufacturer's instructions and functional experiments were performed 48 h post transfection. The sequence of RNA oligonucleotides used for the knockdown of different genes are, ssp1 (encodes OPN) (CCACAGCCACAAGCAGUCCAGAUUA (SEQ ID NO: 9)), integrin β1 (CCUAAGUCAGCAGUAGGAACAUUAU (SEQ ID NO: 10)), integrin β3 (CCUCCAGCUCAUUGUUGAUGCUUAU (SEQ ID NO: 11)), integrin α5 (CCGAGUACCUGAUCAACCUGGUUCA (SEQ ID NO: 12)), integrin α8 (GAGAUGAAACUGAAUUCCGAGAUAA (SEQ ID NO: 13)), integrin αv (GACUGUUGAGUAUGCUCCAUGUAGA (SEQ ID NO: 14 and CD44 (GAACAAGGAGUCGUCAGAAACUCCA (SEQ ID NO: 15)). Two other siRNAs against integrin α5 were tested (UCCACCAUGUCUAUGAGCUCAUCAA (SEQ ID NO:16) and UCAGGAGCAGAUUGCAGAAUCUUAU (SEQ ID NO:17)).
# To further investigate the role of OPN in Gi protein-mediated receptor signaling, several lines of experiments were performed using MC3T3-E1 osteoblastic cell line. Since these cells express OPN, was first examined whether depletion of OPN by siRNA influences the capacity of GiPCR ligands to induce cell signaling as measured by CDS in MC3T3-E1 cells. […] Similar results were obtained when cells were stimulated with oxymethazolin. […] To confirm this hypothesis, cells were treated with exogenous recombinant OPN (rOPN) prior to DAMGO and oxymethazolin stimulation.
# [3] = target: RGD-dependent integrins expressed in osteoblasts; experiment: cell-based or functional assay
# GsPCR signaling = experiment: CDS response to GsPCR stimulation (isoproterenol, desmopressin) in MC3T3-E1 cells; assay type: cell-based; conditions: rOPN in combination with Src inhibitor; isoproterenol, similar with desmopressin
# Excerpt: Taken into account these considerations and having observed that genetic deletion of OPN inversely influenced response to Gi and Gs stimulation (FIG. 1), it was of interest to examine the effect of OPN on the functional and phosphorylation status of Gs protein and on its interaction with receptors. For this purpose, cells were subjected to isoproterenol and desmopressin in the presence of rOPN or PBS. As expected, response to isoproterenol was higher in rOPN than in PBS-treated cells.
# Assuming that inhibition of Gi protein and phosphorylation of Gs protein are responsible for the increased GsPCR signaling associated with rOPN, the next experiments aimed to determine the contribution of each parameter. For this purpose, cells were treated with PTX to mimic disruption action of rOPN and compared to cells treated with rOPN alone or in combination with Src inhibitor (PP2) to prevent tyrosine phosphorylation. […] This modest difference was abolished by Src inhibitor (PP2). Similar observations were noted when cells were stimulated with desmopressin.
# [4] = osteoblasts from WT and OPN-/- mice, increasing agonist concentration
Compound,"level of serine phosphorylation in the Gi protein precipitates (Gi1, Gi2, Gi3 proteins)","tyrosine phosphorylation levels in the Gi protein precipitates (Gi1, Gi2, Gi3 proteins)",also measured
apelin,–,–,response to GiPCR agonist (GiPCR signaling [1]): concentration-dependent increase of response
COc1cccc(-c2cc(=O)c3ccccc3o2)c1N [PD98059],attenuated,attenuated,–
Nc1[nH]nc2nnc(-c3c(-c4ccccc4)nn4ccccc34)cc12 [FR180204],attenuated,attenuated,–
C[S+]([O-])c1ccc(-c2nc(-c3ccncc3)c(-c3ccc(F)cc3)[nH]2)cc1 (centres unmarked) [SB203580],attenuated,attenuated,–
"CD44 siRNA: siRNA for knockdown of CD44: GAACAAGGAGUCGUCAGAAACUCCA (guide GAACAAGGAGUCGUCAGAAACUCCA; listed as RNA, chemistry not given here)",–,–,"effect on the inhibitory effect of rOPN on response to DAMGO and oxymethazolin (GiPCR signaling [2]; MC3T3-E1 cells, rOPN present): did not prevent; also recorded: further aggravated the defect"
Cc1cc(C(C)(C)C)c(O)c(C)c1CC1=NCCN1 [oxymethazolin],–,–,response to GiPCR agonist (GiPCR signaling [1]; [4]): concentration-dependent increase of response
OPN siRNA: siRNA for knockdown of ssp1 (encodes OPN): CCACAGCCACAAGCAGUCCAGAUUA,–,–,"integrated response to DAMGO and oxymethazolin (GiPCR signaling [2]; MC3T3-E1 cells, endogenous OPN depleted or blocked, no exogenous rOPN): significantly greater"
pertussis toxin [PTX],–,–,"cellular responses to each of the four tested agonists after PTX pre-treatment (GiPCR signaling [1]; osteoblasts from WT and OPN-/- mice, DAMGO, somatostatin, oxymethazolin, apelin): largely reduced"
COc1ccc2c(c1)c(C1=C(c3c[nH]c4ccccc34)C(=O)NC1=O)cn2CCCN(C)C [Gö6983],attenuated,without effect,–
O=C1c2ccccc2-c2n[nH]c3cccc1c23 [SP60125],attenuated,attenuated,–
C[C@@H](NC(=O)[C@@H](N)Cc1ccc(O)cc1)C(=O)NCC(=O)N(C)[C@@H](Cc1ccccc1)C(=O)NCCO [DAMGO],–,–,response to GiPCR agonist (GiPCR signaling [1]; [4]): concentration-dependent increase of response
COc1ccc(S(=O)(=O)N(CCO)c2ccccc2CN(C)C/C=C/c2ccc(Cl)cc2)cc1 [KN93],attenuated,attenuated,–
"α5 siRNA: siRNA against integrin α5: CCGAGUACCUGAUCAACCUGGUUCA; two others (SEQ ID NO:16, 17) also tested (guide CCGAGUACCUGAUCAACCUGGUUCA; listed as RNA, chemistry not given here)",–,–,response in the presence of rOPN after siRNA transfection (GiPCR signaling [2]): high response
hyaluronic acid [HA],–,–,"sensitivity of GiPCR signaling to CD44 inhibition (GiPCR signaling [1]; CD44-/- osteoblasts): does not show any sensitivity; GiPCR signaling defects (GiPCR signaling [1]; wild type osteoblasts, compared to the control): exacerbated; GiPCR signaling defect / inhibitory effect of OPN when CD44 is inhibited (GiPCR signaling [1]; wild type osteoblasts, in presence of rOPN): intensified; also recorded: exacerbate the signaling defect"
"β1 siRNA: siRNA against integrin β1: CCUAAGUCAGCAGUAGGAACAUUAU (guide CCUAAGUCAGCAGUAGGAACAUUAU; listed as RNA, chemistry not given here)",–,–,response in the presence of rOPN after siRNA transfection (GiPCR signaling [2]): high response
RGD peptide,–,–,RGD concentration reversing the inhibitory effect of OPN on response to DAMGO and oxymethazolin (CDS) [3]: > 10 µg/mL
CC(C)(C)n1nc(-c2ccc(Cl)cc2)c2c(N)ncnc21 [PP2],attenuated,attenuated,difference in response between rOPN-treated and PTX-treated cells (GsPCR signaling): abolished
Nc1cc(N)c(N)cc1N [FAK inhibitor-14],attenuated,attenuated,–
